SMILES strings stand for the structures. Structures can show the parent of a compound that is named as a salt. Where two headings read alike, the source gives them in different places.

These results are taken from patent US12110279B2, “Triazolones, tetrazolones, and imidazolones, or their salts, and pharmaceutical compositions comprising the same” (Yuhan Corporation, priority 2021, dated 2024).

Holding throughout (type): biochemical
One experiment deals with T1, recombinant human VAP-1 (Homo sapiens, UniProt Q16853).
T1 construct: purchased R&D systems
T1 sequence (Q16853 1-763): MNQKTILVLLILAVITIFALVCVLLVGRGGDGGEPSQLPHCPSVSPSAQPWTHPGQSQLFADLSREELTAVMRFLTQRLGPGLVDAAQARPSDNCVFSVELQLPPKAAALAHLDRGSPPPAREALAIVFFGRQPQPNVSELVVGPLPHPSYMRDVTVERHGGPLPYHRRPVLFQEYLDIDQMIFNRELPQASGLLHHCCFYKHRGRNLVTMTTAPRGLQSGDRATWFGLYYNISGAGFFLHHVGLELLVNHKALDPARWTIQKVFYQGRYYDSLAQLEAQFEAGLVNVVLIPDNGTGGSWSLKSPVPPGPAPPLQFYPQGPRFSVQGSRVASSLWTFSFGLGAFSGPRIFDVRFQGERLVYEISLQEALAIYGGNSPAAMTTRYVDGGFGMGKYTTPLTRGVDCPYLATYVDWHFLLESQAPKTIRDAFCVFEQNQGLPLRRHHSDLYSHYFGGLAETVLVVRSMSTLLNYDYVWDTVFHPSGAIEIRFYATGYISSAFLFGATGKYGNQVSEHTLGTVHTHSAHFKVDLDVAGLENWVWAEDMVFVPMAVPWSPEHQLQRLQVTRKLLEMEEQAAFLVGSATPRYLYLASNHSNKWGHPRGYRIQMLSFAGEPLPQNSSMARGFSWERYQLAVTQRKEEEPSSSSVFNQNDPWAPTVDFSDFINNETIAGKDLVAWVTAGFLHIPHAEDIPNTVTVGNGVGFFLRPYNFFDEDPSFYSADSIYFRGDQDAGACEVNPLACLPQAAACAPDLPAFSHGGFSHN
Briefly: Amplex Red HRP-coupled amine oxidase activity evaluation, recombinant human VAP-1. Conditions: substrate 1 mM benzylamine; 30 min preincubation at 37° C.; read-out: Inhibitory Activity (IC50, nM) human VAP-1. Summed up:
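Inhibition is scored as the % drop in resorufin signal rate relative to uninhibited DMSO control and fitted to a 4-parameter logistic curve for IC50. VAP-1 and compound are preincubated 30 min at 37° C before benzylamine substrate (1 mM in the added mix) is introduced.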

Experiment [1] addresses T2, recombinant human MAO-A (monoamine oxidase-A) (Homo sapiens, UniProt P21397).
T2 construct: purchased Sigma-Aldrich
T2 sequence (P21397 1-527): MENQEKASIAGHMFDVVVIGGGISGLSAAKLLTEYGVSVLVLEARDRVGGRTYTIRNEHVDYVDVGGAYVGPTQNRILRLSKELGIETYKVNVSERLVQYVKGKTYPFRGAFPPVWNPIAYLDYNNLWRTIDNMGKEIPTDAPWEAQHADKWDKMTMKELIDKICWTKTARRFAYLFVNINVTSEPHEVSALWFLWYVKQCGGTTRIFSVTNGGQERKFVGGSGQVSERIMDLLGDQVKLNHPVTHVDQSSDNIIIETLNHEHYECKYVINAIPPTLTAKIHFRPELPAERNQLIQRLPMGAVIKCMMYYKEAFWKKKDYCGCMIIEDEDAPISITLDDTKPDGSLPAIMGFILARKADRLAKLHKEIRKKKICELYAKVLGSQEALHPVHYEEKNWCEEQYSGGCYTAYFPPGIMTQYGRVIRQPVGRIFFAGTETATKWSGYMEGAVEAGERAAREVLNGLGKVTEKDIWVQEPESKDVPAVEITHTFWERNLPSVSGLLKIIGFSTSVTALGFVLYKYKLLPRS
The experiment is described as follows: Amplex Red HRP-coupled amine oxidase activity evaluation, recombinant human MAO-A. Conditions: substrate 0.5 mM tyramine; read-out: Inhibitory Activity (IC50, nM) MAO-A.

In experiment [2] the target is T3, recombinant human MAO-B (monoamine oxidase-B) (Homo sapiens, UniProt P27338).
T3 construct: purchased Sigma-Aldrich
T3 sequence (P27338 1-520): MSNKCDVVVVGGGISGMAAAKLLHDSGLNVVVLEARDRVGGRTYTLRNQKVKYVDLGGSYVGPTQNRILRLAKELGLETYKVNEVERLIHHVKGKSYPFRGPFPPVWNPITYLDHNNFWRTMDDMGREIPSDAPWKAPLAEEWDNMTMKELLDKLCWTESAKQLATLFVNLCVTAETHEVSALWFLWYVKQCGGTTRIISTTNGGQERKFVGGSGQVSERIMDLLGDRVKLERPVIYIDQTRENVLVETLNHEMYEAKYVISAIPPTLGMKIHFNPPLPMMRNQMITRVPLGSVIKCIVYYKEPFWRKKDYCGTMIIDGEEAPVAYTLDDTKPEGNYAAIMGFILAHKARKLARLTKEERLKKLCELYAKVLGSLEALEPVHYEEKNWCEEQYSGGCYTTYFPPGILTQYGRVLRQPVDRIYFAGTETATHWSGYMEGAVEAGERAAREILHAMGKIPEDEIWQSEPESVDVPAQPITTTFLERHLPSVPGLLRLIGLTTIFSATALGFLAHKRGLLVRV
Briefly: Amplex Red HRP-coupled amine oxidase activity evaluation, recombinant human MAO-B. Conditions: substrate 1 mM benzylamine; read-out: Inhibitory Activity (IC50, nM) MAO-B.

Experiment [3] addresses T4, recombinant human DAO (diamine oxidase) (Homo sapiens, UniProt P19801).
T4 construct: purchased R&D systems
T4 sequence (P19801 20-751): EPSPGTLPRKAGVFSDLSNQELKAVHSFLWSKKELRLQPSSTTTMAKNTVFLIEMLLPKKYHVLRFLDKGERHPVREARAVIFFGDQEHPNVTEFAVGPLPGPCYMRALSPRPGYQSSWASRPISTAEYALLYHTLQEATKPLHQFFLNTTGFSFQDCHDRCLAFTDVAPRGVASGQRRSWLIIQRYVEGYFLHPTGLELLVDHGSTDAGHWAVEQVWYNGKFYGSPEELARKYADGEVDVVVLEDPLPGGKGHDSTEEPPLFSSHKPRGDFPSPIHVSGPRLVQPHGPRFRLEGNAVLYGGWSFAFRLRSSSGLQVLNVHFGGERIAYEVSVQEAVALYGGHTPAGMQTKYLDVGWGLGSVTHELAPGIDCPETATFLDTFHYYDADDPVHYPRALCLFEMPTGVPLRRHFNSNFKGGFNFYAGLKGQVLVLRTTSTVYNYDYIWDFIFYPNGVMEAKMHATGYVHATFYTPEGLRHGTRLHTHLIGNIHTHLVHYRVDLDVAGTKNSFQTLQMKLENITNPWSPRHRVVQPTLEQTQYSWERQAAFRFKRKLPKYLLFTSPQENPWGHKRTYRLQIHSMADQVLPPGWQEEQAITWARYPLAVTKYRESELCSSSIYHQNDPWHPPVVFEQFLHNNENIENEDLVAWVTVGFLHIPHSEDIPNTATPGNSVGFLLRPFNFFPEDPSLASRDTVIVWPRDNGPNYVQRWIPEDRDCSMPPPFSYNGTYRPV
The experiment is described as follows: Amplex Red HRP-coupled amine oxidase activity evaluation, recombinant human DAO.

The mark [4] stands for this setting: substrate 1 mM putrescine, read-out: Inhibitory Activity (IC50, nM) DAO.

One may read the IC50 as the midpoint of a concentration-inhibition curve. Take `CN(C)c1ccc(-c2csc(-n3nnn(CC(CN)=C(F)F)c3=O)c2)cn1` [Example 38, 1-[2-(aminomethyl)-3,3-difluoro-allyl]-4-[4-[6-(dimethylamino)-3-pyridyl]-2-thienyl]tetrazol-5-one trifluoroacetate]: the IC50 was 0.8 nM on recombinant human VAP-1, > 100000 nM in experiment [1], 768 nM in experiment [2] and > 100000 nM in experiment [3] (setting [4]).
`CCn1cc(-c2ccc(C)c(-n3nnn(CC(CN)=C(F)F)c3=O)n2)ccc1=O` [Example 24, 5-[6-[4-[2-(aminomethyl)-3,3-difluoro-allyl]-5-oxo-tetrazol-1-yl]-5-methyl-2-pyridyl]-1-ethyl-pyridin-2-one trifluoroacetate]: the IC50 at recombinant human VAP-1 was > 100 nM; in experiment [1], > 100000 nM; in experiment [2], > 100000 nM; in experiment [3] (setting [4]), > 100000 nM.
With `NCC(Cn1nnn(Cc2cccc(-c3ccc4c(c3)OCO4)c2)c1=O)=C(F)F` [Example 30, 1-[2-(aminomethyl)-3,3-difluoro-allyl]-4-[[3-(1,3-benzodioxol-5-yl)phenyl]methyl]tetrazol-5-one trifluoroacetate], the IC50 on recombinant human VAP-1 was 0.8 nM; in experiment [1] it was 70900 nM; in experiment [2], 206 nM; in experiment [3] (setting [4]) it was 1500 nM.
As to `CN(C)c1ccc(-c2cccc(Cn3nnn(CC(CN)=C(F)F)c3=O)c2)cn1` [Example 29, 1-[2-(aminomethyl)-3,3-difluoro-allyl]-4-[[3-[6-(dimethylamino)-3-pyridyl]phenyl]methyl]tetrazol-5-one trifluoroacetate], the IC50 on recombinant human VAP-1 is 0.7 nM; in experiment [1], 80100 nM; in experiment [2] it was 14300 nM; in experiment [3] (setting [4]) it was 159 nM.
Consider `CCn1cc(-c2ccc(Cn3ccn(CC(CN)=C(F)F)c3=O)s2)cn1` [Example 52, 1-[2-(aminomethyl)-3,3-difluoro-allyl]-3-[[5-(1-ethylpyrazol-4-yl)-2-thienyl]methyl]imidazol-2-one trifluoroacetate], for which the IC50 is > 100 nM at recombinant human VAP-1, > 100000 nM in experiment [1], 60200 nM in experiment [2] and 192 nM in experiment [3] (setting [4]).
Taken in the same sequence, the figures for `CCn1cc(-c2ccc(-n3nnn(CC(CN)=C(F)F)c3=O)cc2)ccc1=O` [Example 18, 5-[4-[4-[2-(aminomethyl)-3,3-difluoro-allyl]-5-oxo-tetrazol-1-yl]phenyl]-1-ethyl-pyridin-2-one trifluoroacetate] were 0.2 nM, > 100000 nM, 78 nM and > 100000 nM.
Taken in the same sequence, the figures for `CN1C(=O)CCc2cc(-c3csc(-n4nnn(CC(CN)=C(F)F)c4=O)c3)ccc21` [Example 41, 6-[5-[4-[2-(aminomethyl)-3,3-difluoro-allyl]-5-oxo-tetrazol-1-yl]-3-thienyl]-1-methyl-3,4-dihydroquinolin-2-one trifluoroacetate] were 0.4 nM, > 100000 nM, 34 nM and 52 nM.
On to `CCn1cc(-c2ccc(-n3nnn(CC(CN)=C(F)F)c3=O)cc2)cn1` [Example 22, 1-[2-(aminomethyl)-3,3-difluoro-allyl]-4-[4-(1-ethylpyrazol-4-yl)phenyl]tetrazol-5-one trifluoroacetate], for which the IC50 at recombinant human VAP-1 worked out at 0.3 nM; in experiment [1], 98400 nM; in experiment [2] it was 74 nM; in experiment [3] it was 95 nM.
With `CN1C(=O)CCc2cc(-c3ccc(-n4nnn(CC(CN)=C(F)F)c4=O)cc3)ccc21` [Example 21, 6-[4-[4-[2-(aminomethyl)-3,3-difluoro-allyl]-5-oxo-tetrazol-1-yl]phenyl]-1-methyl-3,4-dihydroquinolin-2-one trifluoroacetate], the IC50 was 0.5 nM at recombinant human VAP-1, > 100000 nM in experiment [1], 43 nM in experiment [2] and 38 nM in experiment [3] (setting [4]).
For `CN1C(=O)CCc2cc(-c3ccc(Cn4nnn(CC(CN)=C(F)F)c4=O)s3)ccc21` [Example 46, 6-[5-[[4-[2-(aminomethyl)-3,3-difluoro-allyl]-5-oxo-tetrazol-1-yl]methyl]-2-thienyl]-1-methyl-3,4-dihydroquinolin-2-one trifluoroacetate], in that order: 0.5 nM, 63100 nM, 6830 nM and 1050 nM.
Take `CCn1cc(-c2ccc(Cn3nnn(CC(CN)=C(F)F)c3=O)s2)cn1` [Example 47, 1-[2-(aminomethyl)-3,3-difluoro-allyl]-4-[[5-(1-ethylpyrazol-4-yl)-2-thienyl]methyl]tetrazol-5-one trifluoroacetate]: the IC50 on recombinant human VAP-1 was 0.5 nM; in experiment [1], > 100000 nM; in experiment [2] it was 15100 nM; in experiment [3] (setting [4]) it was 8170 nM.
For `CS(=O)(=O)c1ccc(-c2cccc(Cn3nnn(CC(CN)=C(F)F)c3=O)c2)cc1` [Example 27, 1-[2-(aminomethyl)-3,3-difluoro-allyl]-4-[[3-(4-methylsulfonylphenyl)phenyl]methyl]tetrazol-5-one trifluoroacetate], the IC50 on recombinant human VAP-1 was 1 nM; in experiment [1], > 100000 nM; in experiment [2] it was 48400 nM; in experiment [3] (setting [4]) it was 513 nM.
For `CN1C(=O)CCc2cc(-c3ccc(Cn4ccn(CC(CN)=C(F)F)c4=O)s3)ccc21` [Example 51, 6-[5-[[3-[2-(aminomethyl)-3,3-difluoro-allyl]-2-oxo-imidazol-1-yl]methyl]-2-thienyl]-1-methyl-3,4-dihydroquinolin-2-one trifluoroacetate], the IC50 is 1.9 nM at recombinant human VAP-1, > 100000 nM in experiment [1], 63100 nM in experiment [2] and 206 nM in experiment [3] (setting [4]).
